# Biological target: Rhodopsin (Bos taurus) (UniProt P02699)
# Assay: Agonist activity at bovine rhodopsin assessed as opsin mediated cognate G protein transducer activation by fluorescence assay
# Assay type: functional
# Design: concentration or dose not given beside the values
# Sequence of Rhodopsin (Bos taurus) (P02699 whole entry): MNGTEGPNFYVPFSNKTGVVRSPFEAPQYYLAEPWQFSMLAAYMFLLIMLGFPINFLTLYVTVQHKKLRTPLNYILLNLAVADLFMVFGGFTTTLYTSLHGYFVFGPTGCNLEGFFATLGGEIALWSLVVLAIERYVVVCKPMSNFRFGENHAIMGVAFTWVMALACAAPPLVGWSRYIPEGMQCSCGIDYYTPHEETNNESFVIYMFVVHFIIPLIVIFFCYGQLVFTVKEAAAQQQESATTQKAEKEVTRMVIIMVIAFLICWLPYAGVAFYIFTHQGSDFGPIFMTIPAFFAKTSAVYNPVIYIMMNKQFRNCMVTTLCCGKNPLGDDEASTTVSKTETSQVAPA
row,Structure (SMILES),Activity
1,CC1=C(/C=C/C(C)=C\C=C\C(C)=C\C=O)C(C)(C)CCC1,104%
2,CC1=C(/C=C/C(C)=C/C=C\C(C)=C\C=O)C(C)(C)CCC1,100%
3,CC1=C(/C=C/C(C)=C\C=C\C(=C\C=O)C(C)C)C(C)(C)CCC1,139%
4,CC1=C(/C=C/C(C)=C\C=C\C(=C\C=O)C2CC2)C(C)(C)CCC1,53%

# Continued, values first:
row,Activity,Structure (SMILES)
1,83%,CC1=C(/C=C/C(=C/C=C\C(C)=C\C=O)C2CC2)C(C)(C)CCC1
2,60%,CC1=C(/C=C/C(=C\C=C\C(C)=C\C=O)C2CC2)C(C)(C)CCC1
